In PMC11945657, “Microwave-Assisted Synthesis of Morpholine-Based Chalcones as Reversible MAO-A Inhibitors in the Management of Mental Depression” (Pharmaceuticals, 2025):
“And” between values parts separate entries of the source, which are not always exact repeats. Identical values can stand only once. Like-named read-outs stand apart in the source and are kept apart here.

How the values were obtained:
MAO-A = settings: Figure 1, read-out: MAO-A inhibition, cited from earlier work
hMAO-A [1] = molecular target: T1, hMAO-A (Homo sapiens, UniProt P21397); parameters: purchased Sigma-Aldrich; settings: Figure 1, read-out: hMAO-A inhibition; cited from earlier work
T1 sequence (P21397 1-527): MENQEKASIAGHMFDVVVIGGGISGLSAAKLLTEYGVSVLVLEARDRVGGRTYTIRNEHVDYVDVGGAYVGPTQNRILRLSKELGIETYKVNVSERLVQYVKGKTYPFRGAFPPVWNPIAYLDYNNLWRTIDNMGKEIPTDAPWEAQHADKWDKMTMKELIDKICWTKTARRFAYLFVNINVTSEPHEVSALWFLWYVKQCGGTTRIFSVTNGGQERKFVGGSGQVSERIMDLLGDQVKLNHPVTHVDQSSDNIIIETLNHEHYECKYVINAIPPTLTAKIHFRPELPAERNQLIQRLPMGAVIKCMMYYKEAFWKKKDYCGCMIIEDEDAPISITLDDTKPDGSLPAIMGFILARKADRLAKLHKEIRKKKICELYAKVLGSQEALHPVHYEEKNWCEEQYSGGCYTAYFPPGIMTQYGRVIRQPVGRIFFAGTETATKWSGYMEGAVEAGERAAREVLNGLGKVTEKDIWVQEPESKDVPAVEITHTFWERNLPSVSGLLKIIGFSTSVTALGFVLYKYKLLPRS

[2] = DPPH free radical scavenging antioxidant assay; settings: for antioxidant potential in the DPPH assay: concentration not given
Procedure: H2O2 produced during metabolic events in the brain may be crucial for signaling and metabolic functions. The compounds were screened to check their potential to inhibit ROS through the DPPH assay. […] However, further studies are required to confirm this effect.
The DPPH approach, which gauges the free radical scavenging activity, was used to evaluate the antioxidant properties of the compounds. The test was performed according to the literature method. The stock solution of DPPH (0.5 mM) was prepared, and methanol was used to create each dilution. The different concentrations (10, 25, 50, 75, and 100 μM) of the test compounds (C1–C15) were prepared and compared with the standard ascorbic acid. The percentage antioxidant activity of the compounds was calculated using the following formula: % Antioxidant activity = [(Aabsorbance − Atest)/Aabsorbance] × 100.

hMAO-A [3] = molecular target: T1, hMAO-A; assay: Reversibility inhibition study (dilution method); format: biochemical; parameters: purchased Sigma-Aldrich; settings: for reversibility of hMAO-A inhibition: dilution method
Procedure: Reversibility inhibition investigations were conducted using dilution methods as per the reported protocol, and all experiments were performed in triplicate. […] Substrate and buffer solutions were used for the dilution.

hMAO-B = molecular target: T2, hMAO-B (Homo sapiens, UniProt P27338); assay: MAO inhibition assay (Amplex Red, fluorimetric), MAO-B
T2 sequence (P27338 1-520): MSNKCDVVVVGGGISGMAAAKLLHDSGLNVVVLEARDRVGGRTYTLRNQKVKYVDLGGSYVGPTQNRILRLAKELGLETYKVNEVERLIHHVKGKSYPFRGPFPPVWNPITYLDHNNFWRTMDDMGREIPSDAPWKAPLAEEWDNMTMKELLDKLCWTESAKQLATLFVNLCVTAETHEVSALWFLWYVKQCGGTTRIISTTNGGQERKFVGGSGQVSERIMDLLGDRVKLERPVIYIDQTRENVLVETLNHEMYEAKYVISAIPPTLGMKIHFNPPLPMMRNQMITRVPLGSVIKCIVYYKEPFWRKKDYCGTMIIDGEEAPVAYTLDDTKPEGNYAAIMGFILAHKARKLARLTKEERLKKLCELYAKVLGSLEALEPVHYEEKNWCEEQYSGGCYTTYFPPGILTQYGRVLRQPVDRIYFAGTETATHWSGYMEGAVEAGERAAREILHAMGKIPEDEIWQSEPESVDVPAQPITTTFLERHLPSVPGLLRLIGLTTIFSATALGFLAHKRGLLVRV

hMAO-A [4] = molecular target: T1, hMAO-A; assay: MAO inhibition assay (Amplex Red, fluorimetric), MAO-A
[5] = 0.1 × IC50, after 100 times dilution with tyramine substrate
[6] = 1 × IC50, after 100 times dilution with tyramine substrate
[7] = read-out: Percentage Inhibition at 20 μM MAO-B
[8] = read-out: Percentage Inhibition at 20 μM MAO-A, 20 μM

Structure (SMILES)	IC50 (MAO-A) [µM]	% Antioxidant Activity ([2]; 10 µM) [%]	% Antioxidant Activity ([2]; 25 µM) [%]	% Antioxidant Activity ([2]; 50 µM) [%]	% Antioxidant Activity ([2]; 75 µM)	% Antioxidant Activity ([2]; 100 µM) [%]	inhibition at 20 µM (hMAO-B; read-out: IC50 Values MAO-B) [%]	inhibition at 20 µM (hMAO-B; [7]) [%]	IC50 (hMAO-A [4]) [µM]	Percentage Inhibition at 20 μM MAO-A (hMAO-A [4]) [%]	inhibition at 20 µM (hMAO-A [4]; [8]) [%]	other results
COc1cc(OC)c(/C=C/C(=O)c2ccc(Br)cc2)c(OC)c1 [Compound 1]	0.56 ± 0.076	–	–	–	–	–	–	–	–	–	–	–
CCOc1ccc(C(=O)/C=C/c2ccc(F)cc2)cc1 [Compound 2]	–	–	–	–	–	–	–	–	–	–	–	IC50 (hMAO-A [1]): 4.63 ± 0.15 µM
O=C(/C=C/c1ccc(C(F)(F)F)cc1)c1ccc[nH]1 [Compound 3]	3.81 ± 0.387	–	–	–	–	–	–	–	–	–	–	–
COc1cc(OC)c(/C=C/C(=O)c2ccc(F)cc2)c(OC)c1 [Compound 4]	0.444 ± 0.039	–	–	–	–	–	–	–	–	–	–	–
COc1cc(C(=O)/C=C/c2ccc([N+](=O)[O-])cc2)cc(OC)c1OC [Compound 5]	–	–	–	–	–	–	–	–	–	–	–	Ki (MAO-A; Ki): 3.47 ± 0.09 µM
O=C(/C=C/c1ccc(F)c(F)c1)c1ccc(N2CCOCC2)cc1 [Compound C6, (E)-3-(3,4-Difluorophenyl)-1-(4-morpholinophenyl)prop-2-en-1-one]	–	12.25	24.46	36.03	50% and 53.39%	55.16	< 50	31.9	8.45 ± 0.19	71.67	71.6	antioxidant potential in the DPPH assay [2]: more than 50%; % MAO-A activity (hMAO-A [3]; [5]): 68.83%; % MAO-A activity (hMAO-A [3]; [6]): 38.95%; % MAO-A activity (hMAO-A [3]; 10 × IC50, before dilution): 8.32%; % MAO-A activity (hMAO-A [3]; 100 × IC50, before dilution): 3.41%; reversibility of hMAO-A inhibition (hMAO-A [3]): reversibly inhibit
O=C(/C=C/c1ccccc1Cl)c1ccc(N2CCOCC2)cc1 [Compound C12, (E)-3-(2-Chlorophenyl)-1-(4-morpholinophenyl)prop-2-en-1-one]	–	3.03	19.54	40.88	44.56%	35.95	< 50	23.9	9.35 ± 0.11	67.76	67.7	–
CCc1ccc(/C=C/C(=O)c2ccc(N3CCOCC3)cc2)cc1 [Compound C13, (E)-3-(4-Ethylphenyl)-1-(4-morpholinophenyl)prop-2-en-1-one]	–	2.54	15.55	41.40	22.18%	66.87	< 50	17.5	–	–	–	inhibition at 20 µM (hMAO-A [4]; read-out: Percentage Inhibition at 20 μM MAO-A): 7.25%
O=C(/C=C/c1ccc(F)cc1F)c1ccc(N2CCOCC2)cc1 [Compound C14, (E)-3-(2,4-Difluorophenyl)-1-(4-morpholinophenyl)prop-2-en-1-one]	–	10.51	18.21	41.12	50% and 53.12%	59.51	< 50	35.3	7.91 ± 0.08	75.45	75.4	antioxidant potential in the DPPH assay [2]: more than 50%; % MAO-A activity (hMAO-A [3]; [5]): 65.33%; % MAO-A activity (hMAO-A [3]; [6]): 35.76%; % MAO-A activity (hMAO-A [3]; 10 × IC50, before dilution): 6.67%; % MAO-A activity (hMAO-A [3]; 100 × IC50, before dilution): 3.28%; reversibility of hMAO-A inhibition (hMAO-A [3]): reversibly inhibit
Cc1ccccc1/C=C/C(=O)c1ccc(N2CCOCC2)cc1 [Compound C15, (E)-1-(4-Morpholinophenyl)-3-(o-tolyl)prop-2-en-1-one]	–	6.51	30.71	41.06	32.50%	29.17	< 50	25.7	–	–	6.17	–
